Each structure is given as a SMILES string.

This data set relates to L929 mouse fibroblast cells. The data set is described as follows: Tissue culture MEM elution test (cytotoxicity). Format: cell-based. The conditions noted are these: 25 mg. The procedure: One accepted method for determining the necessary biocompatibility of various compositions toward living tissue is an in vitro cell culture biocompatibility method wherein samples of the compositions to be tested are extracted in a bovine serum solution in a Minimum Essential Medium (MEM), whereafter the bovine serum solution and specified animal cells, such as human (WI-38), L929 mouse fibroblast cells or their equivalent, are incubated in a MEM for a predetermined period of time, and the incubated cells are visually observed and graded for cytotoxic manifestations. See, for example, R. E. Wilsnack, Quantitative Cell Culture Biocompatibility Testing of Medical Devices and Correlation To Animal Tests, Biomat, Med. Dev. Art. Org., 4(3& 4), 235-261 (1976). In connection with the present compositions, the in vitro cell culture method preferably is performed using L929 mouse fibroblast cells which have been cultured in a growth medium consisting of 5% bovine serum solution in MEM, wherein the bovine serum solution initially was used to extract a specified mass of cured or uncured material, as the case may be, and wherein the cells were incubated at 37°±2° C. for a specified period of time, e.g., 24, 48 or 72 hours. The degree of toxicity may be stated as a function of the percentage of the cells which have been lysed or fixed over the test period. […]

Consider `[Ca+2].[OH-].[OH-]` [Calcium Hydroxide, calcium hydroxide], for which, under “2 hours after extract placed on cells”, the “Cytotoxic manifestation (footnote ***)” value is given as “All cells dead after 2 hours”. In addition, under “Table I, curing time 0 s, 24 hr”, the “24 hr results (% Lysed or fixed)” value was 100%.

The record behind these values is patent US4813876A, “Method of treating living pulp tissue” (Dentsply Research & Development Corp., priority 1987, dated 1989).
